Experiment [1] deals with CCRF-CEM. Put plainly: Inhibition of cell proliferation (MTT). The format is cell-based, human. Conditions: Leukemia. As for the experimental part:
(§1) Inhibition of cell proliferation is determined in human tumor cell lines. Innoculation density and doubling times for specific cell lines are listed at World Wide Web URL “dtp.nci.nih.gov/docs/misc/common_files/cell_list.html.”
(§2) • 1. Plate adherent cells the day before starting the experiment in 180 μl growth media (see list hereafter). • 2. Day of experiment, count and plate suspension cells in 180 μl growth media (see list on next page). • 3. Make 10× Compound, vehicle, and chemotherapeutic cocktail • a. Compound (1× to 10×) • i. 10 μM Compound to 100 μM • ii. 3 μM Compound to 30 μM • iii. 1 μM Compound to 10 μM • iv. 0.3 μM Compound to 3 μM • v. 0.1 μM Compound to 1 μM • b. Vehicle • i. PBS, equivalent to the volume used for 10 μM Compound (1× is ˜0.06% PBS) • c. Chemotherapeutic cocktail (1× to 10×): • i. 1 μM Velcade to 10 μM • ii. 100 μM Etoposide to 1 mM • iii. 20 μM Taxol to 200 μM • 4. Add 20 μl of the 10× compound/vehicle/chemotherapeutic cocktail to cells. • 5. Incubate at 37° C., 5% CO2 for 48 hours. • 6. Aspirate media. For suspension cells, spin plate at 1500 RPM for 10 minutes. Use a multichannel pipettor to slowly remove media. • 7. Add 200 μl of Thiazolyl Blue Tetrazolium Bromide (MTT) to each well: 0.863 mg/ml MTT in growth media.
(§3) Proliferation of several cancer cells was inhibited by compound TA1-1B (which is a particular mixture of the isomers represented by TA1-1A), as shown in the following table (Table 1). The value EC50 is the amount of Compound TA1-1B that results in 50% inhibition of proliferation of the indicated cell type.

Experiment [2] concerns HOP-92. Put plainly: Inhibition of cell proliferation (MTT). The experiment is classed as cell-based, human. Conditions: HOP-92, Non Small Cell Lung. How it is done:
as §1, §2, §3

Experiment [3] deals with SR. In words: Inhibition of cell proliferation (MTT). The experiment is classed as cell-based, human. Conditions: Leukemia. How it is done: as §1, §2, §3
Experiment [4] deals with CCKB/CCK2 Cholecystokinin receptor (Homo sapiens, UniProt P32239). Put plainly: Receptor binding.
Experiment [5] addresses H2-receptor (Homo sapiens, UniProt P25021). Put plainly: Receptor binding.
The target of experiment [6] is T1, CCK1/CCKA (Homo sapiens, UniProt P32238).
T1 sequence (P32238 1-428): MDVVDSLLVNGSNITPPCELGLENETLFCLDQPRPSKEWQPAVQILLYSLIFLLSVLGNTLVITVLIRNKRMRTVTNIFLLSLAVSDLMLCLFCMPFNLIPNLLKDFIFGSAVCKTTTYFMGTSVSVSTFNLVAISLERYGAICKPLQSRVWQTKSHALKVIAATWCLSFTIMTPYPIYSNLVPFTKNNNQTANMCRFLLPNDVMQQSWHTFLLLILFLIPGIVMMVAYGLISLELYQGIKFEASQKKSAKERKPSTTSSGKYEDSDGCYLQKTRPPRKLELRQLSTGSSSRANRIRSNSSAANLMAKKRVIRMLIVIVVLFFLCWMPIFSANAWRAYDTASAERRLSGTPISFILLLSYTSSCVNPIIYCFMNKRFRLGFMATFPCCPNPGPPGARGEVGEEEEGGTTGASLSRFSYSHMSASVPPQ
In words: Receptor functional assay. The format is biochemical. As for the experimental part:
(§4) The binding IC50, functional effect, and functional EC50 of TA1-1B on exemplary receptors was determined.

Experiment [7] addresses T2, CCK2/CCKB (Homo sapiens, UniProt P32239).
T2 sequence (P32239 1-447): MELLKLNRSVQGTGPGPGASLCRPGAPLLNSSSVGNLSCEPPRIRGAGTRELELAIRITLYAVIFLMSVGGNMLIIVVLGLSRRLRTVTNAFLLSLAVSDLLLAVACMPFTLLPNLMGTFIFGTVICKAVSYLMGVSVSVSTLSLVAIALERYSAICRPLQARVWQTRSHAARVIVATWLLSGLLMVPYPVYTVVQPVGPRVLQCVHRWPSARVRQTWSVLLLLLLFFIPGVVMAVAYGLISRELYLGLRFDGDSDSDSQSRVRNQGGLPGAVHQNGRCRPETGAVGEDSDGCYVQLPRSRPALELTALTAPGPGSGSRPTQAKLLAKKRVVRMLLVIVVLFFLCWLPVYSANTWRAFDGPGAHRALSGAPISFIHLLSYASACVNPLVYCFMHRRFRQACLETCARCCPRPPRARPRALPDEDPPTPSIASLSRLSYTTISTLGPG
In words: Receptor functional assay. The format is biochemical. How it is done:
as §4

In experiment [8] the target is SST1 (Homo sapiens, UniProt P30872). Put plainly: Receptor functional assay. The format is biochemical. How it is done:
as §4

For experiment [9], the target named is SST4 (Homo sapiens, UniProt P31391). In words: Receptor functional assay. The format is biochemical. How it is done:
as §4

Experiment [10] addresses SST5 (Homo sapiens, UniProt P35346). In words: Receptor functional assay. The format is biochemical. How it is done:
as §4

SST4, sequence (P31391 whole entry, species assumed): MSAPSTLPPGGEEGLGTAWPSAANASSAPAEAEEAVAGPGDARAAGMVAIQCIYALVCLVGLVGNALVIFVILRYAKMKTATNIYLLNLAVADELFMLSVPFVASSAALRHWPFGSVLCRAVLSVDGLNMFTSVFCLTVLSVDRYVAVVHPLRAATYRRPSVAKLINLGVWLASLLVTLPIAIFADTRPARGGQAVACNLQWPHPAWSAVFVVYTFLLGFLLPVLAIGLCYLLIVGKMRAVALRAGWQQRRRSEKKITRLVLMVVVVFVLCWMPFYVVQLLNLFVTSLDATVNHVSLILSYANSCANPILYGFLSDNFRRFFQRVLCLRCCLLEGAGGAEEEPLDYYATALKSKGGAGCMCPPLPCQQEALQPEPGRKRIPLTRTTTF
SST5, sequence (P35346 whole entry, species assumed): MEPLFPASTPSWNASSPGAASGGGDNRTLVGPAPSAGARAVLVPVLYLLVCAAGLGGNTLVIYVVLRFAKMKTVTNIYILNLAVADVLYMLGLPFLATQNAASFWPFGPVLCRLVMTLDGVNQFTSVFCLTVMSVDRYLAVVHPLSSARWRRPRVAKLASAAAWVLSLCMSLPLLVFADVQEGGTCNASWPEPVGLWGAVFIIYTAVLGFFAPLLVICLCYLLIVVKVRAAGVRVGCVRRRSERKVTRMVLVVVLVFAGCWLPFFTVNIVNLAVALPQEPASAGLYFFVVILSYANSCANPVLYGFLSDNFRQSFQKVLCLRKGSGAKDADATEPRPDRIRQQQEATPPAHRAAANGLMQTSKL
SST1, sequence (P30872 whole entry, species assumed): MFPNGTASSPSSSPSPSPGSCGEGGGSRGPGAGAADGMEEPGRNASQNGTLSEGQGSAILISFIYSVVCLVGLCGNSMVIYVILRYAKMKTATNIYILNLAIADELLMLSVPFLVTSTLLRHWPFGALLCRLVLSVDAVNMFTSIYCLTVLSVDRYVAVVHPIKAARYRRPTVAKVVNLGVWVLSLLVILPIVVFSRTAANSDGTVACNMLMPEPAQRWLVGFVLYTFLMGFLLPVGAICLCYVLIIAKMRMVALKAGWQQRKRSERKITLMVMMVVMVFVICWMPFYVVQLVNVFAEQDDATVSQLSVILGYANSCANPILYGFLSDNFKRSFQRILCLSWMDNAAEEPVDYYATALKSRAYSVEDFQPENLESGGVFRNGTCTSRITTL
H2-receptor, sequence (P25021 whole entry): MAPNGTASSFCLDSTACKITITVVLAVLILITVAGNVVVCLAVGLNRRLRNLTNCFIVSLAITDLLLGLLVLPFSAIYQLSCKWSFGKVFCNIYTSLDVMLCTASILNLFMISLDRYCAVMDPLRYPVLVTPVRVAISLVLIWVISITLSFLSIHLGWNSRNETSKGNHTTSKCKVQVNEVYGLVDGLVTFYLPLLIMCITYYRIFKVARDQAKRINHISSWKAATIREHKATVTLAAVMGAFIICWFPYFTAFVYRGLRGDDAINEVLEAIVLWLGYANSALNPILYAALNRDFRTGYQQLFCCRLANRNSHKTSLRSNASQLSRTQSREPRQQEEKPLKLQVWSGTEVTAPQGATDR

`CN1CCC[C@H]1CCNC(=O)c1cn2c3c(c(N4CCC(c5cnccn5)C4)c(F)cc3c1=O)Oc1cc3ccccc3cc1-2` (some centres unmarked) [TA1-1B]: the EC50 in experiment [1] (Homo sapiens, 48 h) amounted to 0.63 µM; in experiment [1] (48 hours) it was 1.22 µM; in experiment [2] (48 hours), 1.96 µM; in experiment [2] (Homo sapiens, HOP-92, 48 h) it was 1.8 µM; in [3] (Homo sapiens, 48 h) it was 0.914 µM; in experiment [3] (48 hours) it was 1.3 µM. Further, the EC50 turned out to be 1.6 µM in experiment [6] (antagonist); 9 µM in experiment [7] (antagonist); 4.3 µM in experiment [8] (agonist); 9.9 µM in [9] (agonist); 4.7 µM in experiment [10] (agonist). In addition, the inhibition at 1 µM in experiment [4] worked out at 93%; in [5], 48%. The Kb in [6] (antagonist) amounted to 0.34 µM; in [7] (antagonist), 0.4 µM. For the same molecule, the “Functional Effect” value is recorded as “Antagonist” in [6] (response noted at 1 μM); “Antagonist” in experiment [7] (response noted at 10 μM); “Agonist” in experiment [8] (response noted at 10 μM); “Agonist” in [9] (response noted at 10 μM); “Agonist” in experiment [10] (response noted at 10 μM).
